Patent US9428758B2 (priority 2011, dated 2016)
“Also recorded” adds a separate entry of the source.

Experiments:
BY4743 yeast cells = format: cell-based
Arabidopsis seedlings = tested on: Arabidopsis seedlings; design: species or system Arabidopsis thaliana; settings: in vivo
[1] = tested on: mitochondrial membrane potential (ψmito) in BY4743 yeast cells; format: cell-based
yeast cells = settings: cited from earlier work

Q: For `C[C@@H]1C[C@@H]([C@H](O)CC2CC(=O)NC(=O)C2)C(=O)[C@@H](C)C1` [cycloheximide], which “shift in growth sensitivity relative to cells carrying the vector alone” value (BY4743 yeast cells) is on record?
A: Its value is “no significant shift in growth sensitivity”.

Q: Which “effect on root growth of the wild type” value (Arabidopsis seedlings) does the source give for `C/C=C\C(=O)O[C@@H]1C[C@H]2O[C@@H]3C=C(C)C(=O)C[C@]3(C)[C@]1(C)[C@]21CO1` [Tcin, trichothecin] here?
A: Its value is “severely limited root growth; also recorded: severely restricts root initiation and elongation”.

Q: And the “growth against Tcin” value (BY4743 yeast cells)?
A: Its value is “increasingly resistant to Tcin”.

Q: What about the “growth against Tcin relative to cells carrying the vector alone” value (BY4743 yeast cells) of the same compound?
A: Its value is “more sensitive to Tcin”.

Q: And the “growth against Tcin relative to cells containing the vector alone” value (BY4743 yeast cells)?
A: Its value is “provided resistance”.

Q: And the “change of ψmito with increasing concentrations of Tcin” value [1]?
A: Its value is “did not change much”.

Q: What about the IC50 (yeast cells) of the same compound?
A: Its IC50 is 2500 nM.

Q: For `COc1ccc(C[C@H]2NC[C@H](O)[C@H]2OC(C)=O)cc1` [anisomycin], which “shift in growth sensitivity relative to cells carrying the vector alone” value (BY4743 yeast cells) is on record?
A: Its value is “no significant shift in growth sensitivity”.

Q: With `O=C(N[C@H](CO)[C@H](O)c1ccc([N+](=O)[O-])cc1)C(Cl)Cl` [chloramphenicol] as the compound, how does the “shift in growth sensitivity relative to cells carrying the vector alone” value (BY4743 yeast cells) read?
A: The value was “no significant shift in growth sensitivity”.
